Experimental data reported in patent US20170035845A1, “Compositions and Methods for Inhibiting Pro-Inflammatory Cytokine Gene Expression” (The Regents of the University of California, priority 2015, published 2017).

How the values were obtained:
THP-1 macrophages = assay: Cytokine secretion ELISA, LPS-stimulated differentiated THP-1 cells; type: cell-based, human; conditions: LPS 100 ng/ml, comparison RTD-1 versus marimastat
Method: THP-1 monocytes (ATCC, Manassas, Va.) were cultured in RPMI 1640+10% FBS and penicillin/streptomycin (P/S). THP-1 Dual cells (Invivogen, San Diego, Calif.) which express the NF-κB reporter, secreted embryonic alkaline phosphatase (SEAP), were grown in RPMI 1640+10% HI-FBS and antibiotics. THP-1 cell differentiation was induced by treatment of cells (˜3.3×10^5 cells/ml) with 100 nM PMA and cultured for 2 days. HEK-Blue™ hTLR9 cells (Invivogen) were grown in DMEM medium containing 10% HI-FBS, P/S and normocin. Cells were cultured at 37° C. in 5% CO2. Cytokine assays. PMA-differentiated THP-1 cells (˜8×10^5 cells) cultured in 6-well plates were washed twice with complete medium and grown in fresh medium containing 1% FBS for 24 hours. Cells were washed twice with fresh medium and incubated for 2 hours prior to further manipulation. Cells were stimulated with 100 ng/ml LPS in the presence or absence of 10 μg/ml RTD-1 or vehicle (0.01% acetic acid) for 2 hours. In some experiments, cells were first incubated for 1 hour with 10 μg/ml of marimastat or vehicle (DMSO), after which LPS and/or RTD-1 were added and incubated for 2 hours as above. Peripheral blood CD14+ monocytes (Lonza, Walkersville, Md.) were thawed, rinsed with RPMI 1640 containing 10% HI FBS, P/S and normocin and then resuspended in RPMI 1640 containing 1% HI FBS plus antibiotics as above (10^6 cells/nil) for 2 hours. The cells were then stimulated for 4 hours as described in the legend. Medium was collected, clarified by centrifugation first at 250×g for 8 minutes and then at 5000×g for 5 minutes. TNF-α, IL-1β and IL-8 were quantified by ELISA (Life Technologies, Carlsbad, Calif.).

NF-κB = NF-κB activity assay (SEAP reporter, Quantiblue) in THP-1 Dual cells; type: cell-based, human; conditions: LPS 100 ng/ml, comparison RTD-1 versus marimastat; RTD-1 in the presence or absence of marimastat
Method: One ml aliquots of PMA-differentiated THP-1 Dual cells (3.3×10^5 cells/nil) in 24 well tissue culture plates were starved for 1 day in complete medium with 1% HI FBS as described above. For experiments with S7 peptide, 0.5 ml cultures in 48 well plates were used. Fresh medium containing 1% HI FBS was added to the cells and after 2 hours cells were stimulated with 100 ng/ml LPS or 25 ng/ml Pam3CSK4 in the presence of RTD-1 or 0.01% acetic acid (HOAc, vehicle). In some experiments cells were pre-incubated with marimastat, Ly294002 or vehicle for 1 hour prior to addition of LPS and/or RTD-1 (SEQ ID NO. 1). Following overnight incubation, medium was clarified by centrifugation and SEAP activity was determined using Quantiblue reagent at 37° C. and measurement of absorbance at 625 nm. To test the effect of RTD-1 on TLR9-dependent NF-κB activation, 2×10^5 HEK-Blue™ hTLR9 cells/ml were cultured for 1 day in 24 well plates and stimulated overnight with ODN2006 with or without RTD-1. Medium was harvested and SEAP activity was assayed using Quantiblue™ as above. NF-κB activation was defined as fold stimulation of SEAP activity with respect to control cells.

CNC(=O)[C@@H](NC(=O)[C@H](CC(C)C)[C@H](O)C(=O)NO)C(C)(C)C [marimastat, reference compound]
release of TNF-α by LPS-stimulated THP-1 cells (THP-1 macrophages): efficiently blocked
secretion of IL-1β by LPS-stimulated THP-1 cells (THP-1 macrophages): did not affect
LPS-stimulated NF-κB activation (NF-κB): no effect
